The values that follow come from PMC9101642 (Molecules, 2022).

The subject of data set [1] is MNU-induced breast cancer tissue. In words: Histopathology of breast sections. It counts as in vivo, Wistar rats. The essentials:
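Rats with MNU-induced breast cancer were given selected leads at two concentrations. Breast tissue was examined histopathologically for lobuloalveolar units and epithelial changes, with slides photographed at 200x.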

Data set [2] can be described thus: MTT antiproliferative assay (neutral control). Conditions: human.
Data set [3] can be described thus: Serum biochemical markers after treatment of MNU-induced rats. It is filed as in vivo, Wistar rats. The settings on record: for ALP (A/L) / ALT (A/L) / AST (U/L) / γ-GT (U/L): serum; for TBC: total bilirubin content. On the set-up: TBC: unit not given here. The method, boiled down:
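Mammary tumours induced in rats by MNU 50 mg/kg i.p. at day 50; after two weeks, compounds given orally at 5 or 50 mg/kg once daily for six weeks. Serum AST, ALT (340 nm), ALP (405 nm) and bilirubin measured; liver homogenate GSH, CAT, MDA by colorimetry; plasma binding by ultrafiltration at 37°C with BCA protein read-out.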

Data set [4] deals with Ishikawa endometrial adenocarcinoma cells. In words: Antiproliferative assay. It counts as cell-based. The settings on record: Homo sapiens, growth inhibition.

Take `CNCCOc1ccc(C(=O)O[C@@H]2/C=C/C(=O)O[C@@H](O)CCC/C=C/[C@@H]3C[C@H](O)C[C@H]32)cc1C(C)=O` [Compound 3DPQ-1, (1R,2E,6R,10E,11aS,13S,14aR)-6,13-dihydroxy-4-oxo-4,6,7,8,9,11a,12,13,14,14a-decahydro-1H-cyclopenta[f][1]oxacyclotridecin-1-yl 3-acetyl-4-(2-(methylamino)ethoxy)benzoate]: in data set [1] (5 mg/kg of bwt), the breast section histopathology entry is “lobuloalveolar unit (LaU) and cuboidal epithelial cells (CE)”. Moreover, the breast section histopathology result in data set [1] (50 mg/kg of bwt) was “lobuloalveolar unit (LaU) and cuboidal epithelial cells (CE)”. This molecule also gave an IC50 at 48 h in data set [2] of over 100 nM. In addition, in data set [3] (dose 5 mg/kg), the “ALP (A/L)” value is recorded as 104.53±0.75 A/L, the “ALT (A/L)” value was 51.63±0.32 A/L, the “AST (U/L)” value turned out to be 44.78±0.61 U/L and the “γ-GT (U/L)” value turned out to be 13.54±1.74 U/L. Further, the TBC in data set [3] (dose 5 mg/kg) was 15.43±0.32. Besides, in data set [3] (dose 50 mg/kg), the “ALP (A/L)” value was 107.52±0.6 A/L, the “ALT (A/L)” value was determined as 53.43±1.34 A/L, the “AST (U/L)” value is recorded as 49.54±0.65 U/L and the “γ-GT (U/L)” value is 16.43±0.76 U/L. In data set [3] (dose 50 mg/kg), this molecule registered a TBC of 19.41. The half-inhibitory concentration (IC50) in data set [4] is 0.94 ± 0.36 nM.
For the molecule `CC(=O)c1cc(C(=O)O[C@@H]2/C=C/C(=O)O[C@@H](O)CCC/C=C/[C@@H]3C[C@H](O)C[C@H]32)ccc1OCCN(C)C` [Compound 3DPQ-2, (1R,2E,6R,10E,11aS,13S,14aR)-6,13-dihydroxy-4-oxo-4,6,7,8,9,11a,12,13,14,14a-decahydro-1H-cyclopenta[f][1]oxacyclotridecin-1-yl 3-acetyl-4-(2-(dimethylamino)ethoxy)benzoate], the breast section histopathology entry in data set [1] (5 mg/kg of bwt) was “lobuloalveolar unit (LaU) and cuboidal epithelial cells (CE)”. Besides, the IC50 at 48 h in data set [2] was over 100 nM. Besides, in data set [3] (dose 5 mg/kg), the “ALP (A/L)” value is given as 98.53±0.14 A/L, the “ALT (A/L)” value is 46.89±0.74 A/L, the “AST (U/L)” value came out at 56.43±0.21 U/L and the “γ-GT (U/L)” value stood at 16.52±0.42 U/L. Also, the TBC in data set [3] (dose 5 mg/kg) is 16.43. Besides, in data set [3] (dose 50 mg/kg), the “ALP (A/L)” value turned out to be 119.47±0.13 A/L, the “ALT (A/L)” value amounted to 49.47±0.64 A/L, the “AST (U/L)” value is 59.54±0.32 U/L and the “γ-GT (U/L)” value is 17.35±0.56 U/L. In addition, the TBC in data set [3] (dose 50 mg/kg) worked out at 17.72. Further, the IC50 in data set [4] came to 0.99 ± 0.35 nM.
Turning to `CC(=O)c1cc(C(=O)OC2/C=C/C(=O)O[C@@H](O)CCC/C=C/[C@@H]3C[C@H](O)C[C@@H]23)ccc1OCCN1CCC=C(C(=O)O)C1` (stereo partly drawn) [Compound 3DPQ-3, 1-(2-(2-acetyl-4-((((2E,6R,10E,11aS,13S,14aR)-6,13-dihydroxy-4-oxo-4,6,7,8,9,11a,12,13,14,14a-decahydro-1H-cyclopenta[f][1]oxacyclotridecin-1-yl)oxy)carbonyl)phenoxy)ethyl)-1,2,5,6-tetrahydropyridine-3-carboxylic acid], in data set [1] (5 mg/kg of bwt), the breast section histopathology entry was “lobuloalveolar unit (LaU) and cuboidal epithelial cells (CE)”. The breast section histopathology entry in data set [1] (50 mg/kg of bwt) is “lobuloalveolar unit (LaU) and cuboidal epithelial cells (CE)”. In data set [2], the IC50 at 48 h is over 100 nM. For the same molecule, in data set [3] (dose 5 mg/kg), the “ALP (A/L)” value came to 87.47±0.21 A/L, the “ALT (A/L)” value was 49.84±0.59 A/L, the “AST (U/L)” value amounted to 58.43±0.31 U/L and the “γ-GT (U/L)” value is 10.36±0.45 U/L. In data set [3] (dose 5 mg/kg), this molecule showed a TBC of 17.54±0.36. In addition, in data set [3] (dose 50 mg/kg), the “ALP (A/L)” value turned out to be 86.65±0.44 A/L, the “ALT (A/L)” value was found to be 55.84±0.79 A/L, the “AST (U/L)” value is reported as 61.63±0.47 U/L and the “γ-GT (U/L)” value stood at 11.64±0.84 U/L. The TBC in data set [3] (dose 50 mg/kg) is reported as 20.32. In addition, in data set [4], it took 0.84 ± 0.74 nM to reach half-maximal inhibition (IC50).
For `CC(=O)c1cc(C(=O)O[C@@H]2/C=C/C(=O)O[C@@H](O)CCC/C=C/[C@@H]3C[C@H](O)C[C@H]32)ccc1OCCN1CC(C(=O)O)=CCC1=O` [Compound 3DPQ-9, 1-(2-(2-acetyl-4-((((1R,2E,6R,10E,11aS,13S,14aR)-6,13-dihydroxy-4-oxo-4,6,7,8,9,11a,12,13,14,14a-decahydro-1H-cyclopenta[f][1]oxacyclotridecin-1-yl)oxy)carbonyl)phenoxy)ethyl)-6-oxo-1,2,5,6-tetrahydropyridine-3-carboxylic acid], the breast section histopathology entry in data set [1] (5 mg/kg of bwt) was “lobuloalveolar unit (LaU) and cuboidal epithelial cells (CE)”. Moreover, the breast section histopathology result in data set [1] (50 mg/kg of bwt) is “lobuloalveolar unit (LaU) and cuboidal epithelial cells (CE)”. Moreover, in data set [2] (MRC-5 lung fibroblast cells), the half-inhibitory concentration (IC50) at 48 h was over 100 nM. In addition, in data set [3] (dose 5 mg/kg), the “ALP (A/L)” value was 125.54±0.21 A/L, the “ALT (A/L)” value was found to be 46.58±0.94 A/L, the “AST (U/L)” value came to 64.52±0.43 U/L and the “γ-GT (U/L)” value is 10.32 U/L. Further, the TBC in data set [3] (dose 5 mg/kg) amounted to 22.33. Moreover, in data set [3] (dose 50 mg/kg), the “ALP (A/L)” value is 139.42±0.31 A/L, the “ALT (A/L)” value is on record as 51.95±0.86 A/L, the “AST (U/L)” value was determined as 69.76±0.74 U/L and the “γ-GT (U/L)” value is 12.36±0.53 U/L. In data set [3] (dose 50 mg/kg), this molecule had a TBC of 24.46. This molecule came in with an IC50 in data set [4] of 0.89 ± 0.24 nM.
Consider `CC(=O)c1cc(C(=O)O[C@@H]2/C=C/C(=O)O[C@@H](O)CCC/C=C/[C@@H]3C[C@H](O)C[C@H]32)ccc1OCCN1CCCC(O)C1=O` (stereo partly drawn) [Compound 3DPQ-12, (1R,2E,6R,10E,11aS,13S,14aR)-6,13-dihydroxy-4-oxo-4,6,7,8,9,11a,12,13,14,14a-decahydro-1H-cyclopenta[f][1]oxacyclotridecin-1-yl 3-acetyl-4-(2-(3-hydroxy-2-oxopiperidin-1-yl)ethoxy)benzoate], for which, in data set [1] (5 mg/kg of bwt), the breast section histopathology result is “lobuloalveolar unit (LaU) and cuboidal epithelial cells (CE)”. Also, in data set [1] (50 mg/kg of bwt), the breast section histopathology entry was “lobuloalveolar unit (LaU) and cuboidal epithelial cells (CE)”. Besides, the IC50 at 48 h in data set [2] is over 100 nM. Moreover, in data set [3] (dose 5 mg/kg), the “ALP (A/L)” value turned out to be 132.67±0.43 A/L, the “ALT (A/L)” value is on record as 50.99±0.84 A/L, the “AST (U/L)” value amounted to 51.54±0.74 U/L and the “γ-GT (U/L)” value is 13.53 U/L. In data set [3] (dose 5 mg/kg), this molecule had a TBC of 19.28. Also, in data set [3] (dose 50 mg/kg), the “ALP (A/L)” value was 121.33±0.23 A/L, the “ALT (A/L)” value turned out to be 59.65±0.84 A/L, the “AST (U/L)” value is 52.69±0.95 U/L and the “γ-GT (U/L)” value turned out to be 15.54±0.83 U/L. In data set [3] (dose 50 mg/kg), this molecule gave a TBC of 23.43. Also, the half-maximal inhibitory concentration (IC50) in data set [4] is 0.77 ± 0.43 nM.
